Legend:
[1] = target: glioma BK (gBK) channel, novel splice variant of hSlo alpha-subunit (human) (UniProt Q12791); assay: cell-based or functional assay
gBK = target: T1, gBK (Homo sapiens, UniProt Q12791); assay: Tetrandrine inhibition of gBK currents in outside-out patches; type: cell-based; details: 3 uM tetrandrine, voltage steps to +120 mV
T1 construct: Outside-out patches were isolated from STTG-1 cells; endogenous in cells
Description: Outside-out patches were isolated from STTG-1 cells and the voltage dependence of gBK currents were isolated with different [Ca^2+]i. Currents were integrated over the period of a voltage step and the average conductance was calculated from these areas (Ransom and Sontheimer, 2002). For each patch, 5-20 families of current traces over a range of voltages were obtained and the average conductance values at each membrane potential were determined. The normalized conductance was plotted as a function of membrane potential (activation curves) and fit to the Boltzman equation to obtain half-maximal voltages, V0.5. A total of 45 outside-out patches and their corresponding activation curves with [Ca^2+]i of 0 (10 mM EGTA added), 1.5×10−7 M and 2.1×10−6 M were determined. […] (FIGS. 11A and 11B). For comparison, the same set of experiments was performed on the hbr5 BK channel (Ransom and Sontheimer, 2002). V0.5 for hbr5 BK channel at [Ca^2+]i of 0 (10 mM EGTA added), 1.5×10−7 M and 2.1×10−6 M were +118 mV, +52 mV and −23 mV (FIGS. 12A and 12B).
If gBK channels are associated with β-subunits, then they should be sensitive to tetrandrine, a plant alkaloid. 3 uM tetrandrine has been reported to inhibit β-subunit-containing channels over 50%.

hbr5 = target: T2, hbr5 (Homo sapiens, UniProt Q12791); assay: Tetrandrine inhibition of hbr5 currents in outside-out patches from HEK cells transfected with hbr5; type: cell-based; details: HEK293, 3 uM tetrandrine, voltage steps to +120 mV
T2 construct: expressed in transfected cells; host or cells: HEK cells
T2 sequence (Q12791 1-1207 isoform Q12791-4): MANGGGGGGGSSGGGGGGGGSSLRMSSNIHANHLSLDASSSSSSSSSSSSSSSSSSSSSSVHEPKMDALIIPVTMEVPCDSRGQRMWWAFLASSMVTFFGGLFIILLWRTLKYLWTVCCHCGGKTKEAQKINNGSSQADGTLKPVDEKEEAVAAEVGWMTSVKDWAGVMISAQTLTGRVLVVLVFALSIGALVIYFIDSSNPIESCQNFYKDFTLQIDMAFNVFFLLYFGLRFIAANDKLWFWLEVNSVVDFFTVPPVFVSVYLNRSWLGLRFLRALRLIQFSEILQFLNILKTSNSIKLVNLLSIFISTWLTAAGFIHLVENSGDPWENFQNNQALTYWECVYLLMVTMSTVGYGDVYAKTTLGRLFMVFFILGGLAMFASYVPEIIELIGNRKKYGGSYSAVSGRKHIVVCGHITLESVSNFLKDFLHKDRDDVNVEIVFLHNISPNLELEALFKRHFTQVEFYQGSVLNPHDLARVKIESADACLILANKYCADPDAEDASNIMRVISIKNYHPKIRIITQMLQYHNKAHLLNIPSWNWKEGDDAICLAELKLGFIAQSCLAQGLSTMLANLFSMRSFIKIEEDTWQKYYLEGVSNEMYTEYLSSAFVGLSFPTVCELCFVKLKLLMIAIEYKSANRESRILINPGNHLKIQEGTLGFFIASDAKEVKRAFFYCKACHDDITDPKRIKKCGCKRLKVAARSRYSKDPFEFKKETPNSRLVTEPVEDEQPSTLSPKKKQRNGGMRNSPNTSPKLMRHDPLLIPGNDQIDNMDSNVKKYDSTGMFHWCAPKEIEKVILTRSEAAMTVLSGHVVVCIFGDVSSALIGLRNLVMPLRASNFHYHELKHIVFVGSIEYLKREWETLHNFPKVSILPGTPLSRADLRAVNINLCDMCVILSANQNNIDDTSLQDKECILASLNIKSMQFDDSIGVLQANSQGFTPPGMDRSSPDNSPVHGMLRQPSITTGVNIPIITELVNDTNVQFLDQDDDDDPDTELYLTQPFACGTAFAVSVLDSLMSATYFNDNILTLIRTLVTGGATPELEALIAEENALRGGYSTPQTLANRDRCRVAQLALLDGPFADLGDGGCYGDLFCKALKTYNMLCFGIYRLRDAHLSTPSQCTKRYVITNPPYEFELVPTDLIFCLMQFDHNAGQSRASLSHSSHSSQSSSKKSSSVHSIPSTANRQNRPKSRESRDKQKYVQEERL

Kca current = details: CEFs transformed with Rous sarcoma virus (Repp et al., 1993); cited from earlier work
Kca = details: EGF and PDGF stimulation (Huang and Rane, 1994); cited from earlier work

Sequence of glioma BK (gBK) channel, novel splice variant of hSlo alpha-subunit (human) (Q12791 other isoform, or with tags, fused parts or gaps mutant): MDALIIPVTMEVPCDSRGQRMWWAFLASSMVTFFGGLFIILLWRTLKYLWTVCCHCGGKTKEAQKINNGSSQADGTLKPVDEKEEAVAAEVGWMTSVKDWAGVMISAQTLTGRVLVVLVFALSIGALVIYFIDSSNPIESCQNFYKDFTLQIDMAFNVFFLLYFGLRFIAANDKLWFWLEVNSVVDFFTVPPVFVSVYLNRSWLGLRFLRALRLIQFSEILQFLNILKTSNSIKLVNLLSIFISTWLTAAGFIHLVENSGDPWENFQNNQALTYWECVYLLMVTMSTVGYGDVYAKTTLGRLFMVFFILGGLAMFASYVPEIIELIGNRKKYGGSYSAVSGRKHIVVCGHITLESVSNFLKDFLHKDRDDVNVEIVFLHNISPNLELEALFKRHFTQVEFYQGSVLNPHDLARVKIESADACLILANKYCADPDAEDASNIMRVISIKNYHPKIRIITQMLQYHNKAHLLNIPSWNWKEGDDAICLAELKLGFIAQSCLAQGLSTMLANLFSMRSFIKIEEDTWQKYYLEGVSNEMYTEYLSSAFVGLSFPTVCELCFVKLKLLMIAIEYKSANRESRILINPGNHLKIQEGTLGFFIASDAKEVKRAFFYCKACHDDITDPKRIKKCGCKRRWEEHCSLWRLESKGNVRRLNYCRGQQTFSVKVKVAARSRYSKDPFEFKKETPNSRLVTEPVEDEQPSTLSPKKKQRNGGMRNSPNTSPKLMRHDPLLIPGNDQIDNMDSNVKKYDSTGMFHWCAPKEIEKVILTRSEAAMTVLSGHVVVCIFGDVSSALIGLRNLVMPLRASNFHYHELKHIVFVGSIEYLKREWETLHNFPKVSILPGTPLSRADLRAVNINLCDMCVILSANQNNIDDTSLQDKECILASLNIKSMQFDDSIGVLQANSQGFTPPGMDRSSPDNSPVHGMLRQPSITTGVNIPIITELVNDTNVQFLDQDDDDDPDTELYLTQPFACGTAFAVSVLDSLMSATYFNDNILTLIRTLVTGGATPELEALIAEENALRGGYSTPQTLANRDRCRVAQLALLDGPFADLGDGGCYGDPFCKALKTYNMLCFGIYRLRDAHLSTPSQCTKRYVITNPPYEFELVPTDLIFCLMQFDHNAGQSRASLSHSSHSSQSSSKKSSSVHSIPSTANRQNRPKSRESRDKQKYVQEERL
T1 sequence (Q12791 1-1239 isoform Q12791-7): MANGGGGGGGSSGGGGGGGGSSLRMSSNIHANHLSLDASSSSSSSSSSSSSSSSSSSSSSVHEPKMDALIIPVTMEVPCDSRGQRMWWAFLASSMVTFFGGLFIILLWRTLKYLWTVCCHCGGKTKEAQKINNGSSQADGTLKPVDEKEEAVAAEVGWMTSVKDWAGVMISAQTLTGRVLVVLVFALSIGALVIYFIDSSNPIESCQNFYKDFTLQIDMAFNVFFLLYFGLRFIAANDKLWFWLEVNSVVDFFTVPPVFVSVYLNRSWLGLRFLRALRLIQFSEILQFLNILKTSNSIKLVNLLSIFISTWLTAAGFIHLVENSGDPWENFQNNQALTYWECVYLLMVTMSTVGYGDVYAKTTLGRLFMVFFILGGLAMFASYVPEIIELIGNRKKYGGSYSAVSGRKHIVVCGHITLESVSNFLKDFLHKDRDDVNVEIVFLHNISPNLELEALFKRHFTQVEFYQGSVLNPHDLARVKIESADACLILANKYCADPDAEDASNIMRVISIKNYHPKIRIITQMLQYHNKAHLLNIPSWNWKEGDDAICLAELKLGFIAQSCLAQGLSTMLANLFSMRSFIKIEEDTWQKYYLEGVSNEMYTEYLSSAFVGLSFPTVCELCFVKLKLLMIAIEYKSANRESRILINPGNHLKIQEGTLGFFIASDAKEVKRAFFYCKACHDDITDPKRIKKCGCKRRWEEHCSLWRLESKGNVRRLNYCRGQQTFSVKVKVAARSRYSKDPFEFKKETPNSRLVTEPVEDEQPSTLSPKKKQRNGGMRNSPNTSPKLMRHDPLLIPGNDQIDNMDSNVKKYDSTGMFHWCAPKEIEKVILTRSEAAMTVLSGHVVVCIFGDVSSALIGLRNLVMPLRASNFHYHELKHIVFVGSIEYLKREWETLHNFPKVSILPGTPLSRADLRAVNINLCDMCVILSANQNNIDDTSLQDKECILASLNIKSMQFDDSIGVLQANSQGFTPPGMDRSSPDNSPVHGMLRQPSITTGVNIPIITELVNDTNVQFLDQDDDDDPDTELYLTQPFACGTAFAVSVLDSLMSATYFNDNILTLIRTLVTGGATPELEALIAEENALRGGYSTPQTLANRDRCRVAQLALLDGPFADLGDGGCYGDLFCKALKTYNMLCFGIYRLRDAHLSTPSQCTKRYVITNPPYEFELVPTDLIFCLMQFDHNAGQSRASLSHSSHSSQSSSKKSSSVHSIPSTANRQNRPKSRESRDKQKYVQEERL

With “iberiotoxin (IbTX) (from UniProt P24663 1-37) (peptide)” the inhibition of total outward currents in gBK injected oocytes by 100 nM IbTX [1] was > 60%.
With `COc1ccc2cc1Oc1ccc(cc1)C[C@H]1c3cc(c(OC)cc3CCN1C)Oc1c(OC)c(OC)cc3c1[C@H](C2)N(C)CC3` [tetrandrine] the inhibition at 3 µM (gBK) was 63% and the inhibition at 3 µM (hbr5) was 14%.
For `CC[N+](CC)(CC)CC` [TEA], the IC50 (Kca current) is listed as 1800 µM.
In the case of charybdotoxin [ChTX], the IC50 (Kca current) is listed as 0.019 µM and the “Effect on mitogenic stimulation” value (Kca) is listed as “inhibited the stimulatory effect of the mitogen”.

From patent publication US20040081973A1, “Cloning and characterization of a novel BK channel isoform highly expressed in glioma cells” (priority 2002, published 2004)
